Test results taken from patent US10758534B2 (Vertex Pharmaceuticals Incorporated, priority 2014, dated 2020).

target: T1, F508del (Homo sapiens, UniProt P13569, DEL508-508); assay: Protocol 2: FRET membrane potential optical assay (VIPR), identification of correction compounds; format: cell-based; conditions: Table 3; compounds of Table 1 as modulators of CFTR activity; protocol not stated
T1 construct: expressed in transfected cells
Method in brief: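 NIH3T3 mouse fibroblasts stably expressing F508del-CFTR incubated with compound 16 h at 37 °C in serum-free medium, then loaded with CC2-DMPE/DiSBAC2(3) FRET dyes. Channel activated with 10 μM forskolin plus 20 μM genistein in Cl⁻-free (gluconate) bath; depolarisation from Cl⁻ efflux read on VIPR II.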

T1 sequence (P13569 with tags, fused parts or gaps DEL508-508): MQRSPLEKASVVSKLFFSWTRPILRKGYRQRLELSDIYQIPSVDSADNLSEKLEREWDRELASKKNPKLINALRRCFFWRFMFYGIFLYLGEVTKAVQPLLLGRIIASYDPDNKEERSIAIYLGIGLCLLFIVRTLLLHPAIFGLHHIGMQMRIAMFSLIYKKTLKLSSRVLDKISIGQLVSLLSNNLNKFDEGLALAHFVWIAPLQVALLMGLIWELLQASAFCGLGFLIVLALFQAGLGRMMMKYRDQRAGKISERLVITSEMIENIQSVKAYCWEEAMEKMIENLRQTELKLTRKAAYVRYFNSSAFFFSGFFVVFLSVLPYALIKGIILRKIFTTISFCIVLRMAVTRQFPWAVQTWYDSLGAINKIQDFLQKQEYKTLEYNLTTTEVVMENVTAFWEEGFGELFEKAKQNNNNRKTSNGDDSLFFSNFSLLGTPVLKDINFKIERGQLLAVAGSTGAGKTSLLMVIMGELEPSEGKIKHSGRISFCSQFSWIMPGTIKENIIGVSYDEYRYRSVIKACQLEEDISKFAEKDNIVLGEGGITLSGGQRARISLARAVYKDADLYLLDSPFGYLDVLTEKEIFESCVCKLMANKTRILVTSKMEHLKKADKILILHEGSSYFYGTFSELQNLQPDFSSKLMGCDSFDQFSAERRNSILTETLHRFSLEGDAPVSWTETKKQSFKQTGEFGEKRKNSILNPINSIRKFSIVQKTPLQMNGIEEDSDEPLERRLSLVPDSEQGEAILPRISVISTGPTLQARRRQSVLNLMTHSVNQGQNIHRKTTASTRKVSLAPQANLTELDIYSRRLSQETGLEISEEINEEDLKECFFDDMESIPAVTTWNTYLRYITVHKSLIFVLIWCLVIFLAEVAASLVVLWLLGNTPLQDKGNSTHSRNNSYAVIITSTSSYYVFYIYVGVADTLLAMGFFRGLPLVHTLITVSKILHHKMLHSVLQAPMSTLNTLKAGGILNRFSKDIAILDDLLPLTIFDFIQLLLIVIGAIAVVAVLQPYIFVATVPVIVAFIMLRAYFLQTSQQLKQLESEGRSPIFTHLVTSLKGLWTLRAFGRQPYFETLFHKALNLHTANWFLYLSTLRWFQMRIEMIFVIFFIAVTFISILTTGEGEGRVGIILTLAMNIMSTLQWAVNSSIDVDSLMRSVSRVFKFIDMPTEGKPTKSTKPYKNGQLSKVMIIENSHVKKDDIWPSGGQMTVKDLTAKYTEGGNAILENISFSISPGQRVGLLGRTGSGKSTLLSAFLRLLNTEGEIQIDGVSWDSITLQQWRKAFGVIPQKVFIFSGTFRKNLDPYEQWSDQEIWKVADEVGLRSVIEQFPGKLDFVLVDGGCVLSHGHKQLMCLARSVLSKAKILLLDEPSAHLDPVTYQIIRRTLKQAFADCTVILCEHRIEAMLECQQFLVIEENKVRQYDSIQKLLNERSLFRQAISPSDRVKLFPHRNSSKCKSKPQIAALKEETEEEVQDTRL

EC30 | SMILES
+ (“+” means greater than 10 uM) | Cc1ccc(-c2nc(-c3cc(F)cc(OC(C)C)c3)ccc2C(=O)NS(=O)(=O)c2cccc(N)n2)cc1 [Compound 722, N-[(6-amino-2-pyridyl)sulfonyl]-6-(3-fluoro-5-isopropoxy-phenyl)-2-(p-tolyl)pyridine-3-carboxamide]
++ (“++” means between 3 uM and 10 uM) | COC(=O)C(C)Oc1ccc(-c2ccc(C(=O)NS(=O)(=O)c3cccc(N)n3)c(N3[C@H](C)CC[C@@H]3C)n2)cn1 (stereo partly drawn) [Compound 723, methyl 2-[[5-[5-[(6-amino-2-pyridyl)sulfonylcarbamoyl]-6-[(2S,5R)-2,5-dimethylpyrrolidin-1-yl]-2-pyridyl]-2-pyridyl]oxy]propanoate]
+++ (“+++” means <3 uM) | CC(C)Oc1ccc(-c2ccc(C(=O)NS(=O)(=O)c3cccc(N)n3)c(N3CCCC3C(C)C)n2)cn1 (centres unmarked) [Compound 724, N-[(6-amino-2-pyridyl)sulfonyl]-6-(6-isopropoxy-3-pyridyl)-2-(2-isopropylpyrrolidin-1-yl)pyridine-3-carboxamide]
++ (“++” means between 3 uM and 10 uM) | COc1ccc(-c2ccc(C(=O)NS(=O)(=O)c3cccc(N)n3)c(N3[C@H](C)CC[C@@H]3C)n2)cn1 [Compound 726, N-[(6-amino-2-pyridyl)sulfonyl]-2-[(2S,5R)-2,5-dimethylpyrrolidin-1-yl]-6-(6-methoxy-3-pyridyl)pyridine-3-carboxamide]
++ (“++” means between 3 uM and 10 uM) | CC(C)Oc1ccc(-c2ccc(C(=O)NS(=O)(=O)c3cccc(N)n3)c(N3CCC4(CCO4)CC3)n2)cn1 [Compound 729, N-[(6-amino-2-pyridyl)sulfonyl]-6-(6-isopropoxy-3-pyridyl)-2-(3-oxa-7-azaspiro[3.5]nonan-7-yl)pyridine-3-carboxamide]
+++ (“+++” means <3 uM) | CC(C)Oc1ccc(-c2ccc(C(=O)NS(=O)(=O)c3cccc(N)n3)c(N3CCCCC3c3ccccc3)n2)cn1 (centres unmarked) [Compound 731, N-[(6-amino-2-pyridyl)sulfonyl]-6-(6-isopropoxy-3-pyridyl)-2-(2-phenyl-1-piperidyl)pyridine-3-carboxamide]
+++ (“+++” means <3 uM) | CC(C)Oc1ccc(-c2ccc(C(=O)NS(=O)(=O)c3cccc(N)n3)c(N3CCC4CCCC43)n2)cn1 (centres unmarked) [Compound 732, 2-(3,3a,4,5,6,6a-hexahydro-2H-cyclopenta[b]pyrrol-1-yl)-N-[(6-amino-2-pyridyl)sulfonyl]-6-(6-isopropoxy-3-pyridyl)pyridine-3-carboxamide]
+++ (“+++” means <3 uM) | CC(C)Oc1ccc(-c2ccc(C(=O)NS(=O)(=O)c3cccc(N)n3)c(N3CCC4(CCC4)CC3)n2)cn1 [Compound 733, N-[(6-amino-2-pyridyl)sulfonyl]-2-(7-azaspiro[3.5]nonan-7-yl)-6-(6-isopropoxy-3-pyridyl)pyridine-3-carboxamide]
+++ (“+++” means <3 uM) | CC1CCN(c2nc(-c3ccc(OC(C)C)nc3)ccc2C(=O)NS(=O)(=O)c2cccc(N)n2)CC1 [Compound 736, N-[(6-amino-2-pyridyl)sulfonyl]-6-(6-isopropoxy-3-pyridyl)-2-(4-methyl-1-piperidyl)pyridine-3-carboxamide]
+++ (“+++” means <3 uM) | CC1CCN(c2nc(-c3cc(F)cc(OC(C)C)c3)ccc2C(=O)NS(=O)(=O)c2ccc[nH]c2=O)CC1 [Compound 737, 6-(3-fluoro-5-isopropoxy-phenyl)-2-(4-methyl-1-piperidyl)-N-[(2-oxo-1H-pyridin-3-yl)sulfonyl]pyridine-3-carboxamide]
++ (“++” means between 3 uM and 10 uM) | CC(C)Oc1ccc(-c2ccc(C(=O)NS(=O)(=O)c3cccc(N)n3)c(N(C)CC3CC3)n2)cn1 [Compound 740, N-[(6-amino-2-pyridyl)sulfonyl]-2-[cyclopropylmethyl(methyl)amino]-6-(6-isopropoxy-3-pyridyl)pyridine-3-carboxamide]
+++ (“+++” means <3 uM) | CC(C)Oc1ccc(-c2ccc(C(=O)NS(=O)(=O)c3ccn[nH]3)c(N3CCC[C@H](c4ccccc4)C3)n2)cn1 [Compound 741, 6-(6-isopropoxy-3-pyridyl)-2-[(3R)-3-phenyl-1-piperidyl]-N-(1H-pyrazol-5-ylsulfonyl)pyridine-3-carboxamide]
+++ (“+++” means <3 uM) | CC(C)Oc1ccc(-c2ccc(C(=O)NS(=O)(=O)c3cccc(N)n3)c(N3CCC(c4ccccc4)CC3)n2)cn1 [Compound 742, N-[(6-amino-2-pyridyl)sulfonyl]-6-(6-isopropoxy-3-pyridyl)-2-(4-phenyl-1-piperidyl)pyridine-3-carboxamide]
++ (“++” means between 3 uM and 10 uM) | CC(C)Oc1ccc(-c2ccc(C(=O)NS(=O)(=O)c3cccc(N)n3)c(N3CCCC(F)C3)n2)cn1 (centres unmarked) [Compound 745, N-[(6-amino-2-pyridyl)sulfonyl]-2-(3-fluoro-1-piperidyl)-6-(6-isopropoxy-3-pyridyl)pyridine-3-carboxamide]

Further lines, the compound ahead of its results:

SMILES | EC30
Cc1cc(C)c(Oc2nc(-c3ccc(F)c(F)c3)ccc2C(=O)NS(=O)(=O)c2cccc(N)n2)c(C)c1 [Compound 725, N-[(6-amino-2-pyridyl)sulfonyl]-6-(3,4-difluorophenyl)-2-(2,4,6-trimethylphenoxy)pyridine-3-carboxamide] | +++ (“+++” means <3 uM)
Cc1cc(C)c(Oc2nc(-c3cc(CO)ccc3F)ccc2C(=O)NS(=O)(=O)c2cccc(N)n2)c(C)c1 [Compound 727, N-[(6-amino-2-pyridyl)sulfonyl]-6-[2-fluoro-5-(hydroxymethyl)phenyl]-2-(2,4,6-trimethylphenoxy)pyridine-3-carboxamide] | + (“+” means greater than 10 uM)
CC(C)COc1cc(F)cc(-c2ccc(C(=O)NS(=O)(=O)c3ccn[nH]3)c(N3CCC(F)CC3)n2)c1 [Compound 728, 6-(3-fluoro-5-isobutoxy-phenyl)-2-(4-fluoro-1-piperidyl)-N-(1H-pyrazol-5-ylsulfonyl)pyridine-3-carboxamide] | ++ (“++” means between 3 uM and 10 uM)
Cc1cc(C)c(Oc2nc(-c3cccc(C)n3)ccc2C(=O)NS(=O)(=O)c2cccc(N)n2)c(C)c1 [Compound 730, N-[(6-amino-2-pyridyl)sulfonyl]-6-(6-methyl-2-pyridyl)-2-(2,4,6-trimethylphenoxy)pyridine-3-carboxamide] | +++ (“+++” means <3 uM)
CC(C)COc1cc(F)cc(-c2ccc(C(=O)NS(=O)(=O)c3ccn[nH]3)c(N3CCCCCC3)n2)c1 [Compound 734, 2-(azepan-1-yl)-6-(3-fluoro-5-isobutoxy-phenyl)-N-(1H-pyrazol-5-ylsulfonyl)pyridine-3-carboxamide] | +++ (“+++” means <3 uM)
CC(C)COc1cc(F)cc(-c2ccc(C(=O)NS(=O)(=O)c3cccc(N)n3)c(N3CCCC(C)C3)n2)c1 (centres unmarked) [Compound 735, N-[(6-amino-2-pyridyl)sulfonyl]-6-(3-fluoro-5-isobutoxy-phenyl)-2-(3-methyl-1-piperidyl)pyridine-3-carboxamide] | +++ (“+++” means <3 uM)
Cc1ccccc1Oc1nc(-c2cc(F)cc(OCC(C)C)c2)ccc1C(=O)NS(=O)(=O)c1ccn[nH]1 [Compound 738, 6-(3-fluoro-5-isobutoxy-phenyl)-2-(2-methylphenoxy)-N-(1H-pyrazol-5-ylsulfonyl)pyridine-3-carboxamide] | +++ (“+++” means <3 uM)
CC(C)COc1cc(F)cc(-c2ccc(C(=O)NS(=O)(=O)c3ccn[nH]3)c(N3CCc4ccccc43)n2)c1 [Compound 739, 6-(3-fluoro-5-isobutoxy-phenyl)-2-indolin-1-yl-N-(1H-pyrazol-5-ylsulfonyl)pyridine-3-carboxamide] | ++ (“++” means between 3 uM and 10 uM)
Cc1cc(C)c(Oc2nc(C3CCC(C)CC3)ccc2C(=O)NS(=O)(=O)c2ccc[nH]c2=O)c(C)c1 (centres unmarked) [Compound 743, 6-(4-methylcyclohexyl)-N-[(2-oxo-1H-pyridin-3-yl)sulfonyl]-2-(2,4,6-trimethylphenoxy)pyridine-3-carboxamide] | +++ (“+++” means <3 uM)
Cc1cccc(C)c1Cn1nc(-c2cccc(OC(C)(C)C)c2)cc1C(=O)NS(=O)(=O)c1ccccc1 [Compound 744, N-(benzenesulfonyl)-5-(3-tert-butoxyphenyl)-2-[(2,6-dimethylphenyl)methyl]pyrazole-3-carboxamide] | +++ (“+++” means <3 uM)
Cc1cc(C)c(Oc2nc(N3CCCC3)ccc2C(=O)NS(=O)(=O)c2cccc(N)n2)c(C)c1 [Compound 746, N-[(6-amino-2-pyridyl)sulfonyl]-6-pyrrolidin-1-yl-2-(2,4,6-trimethylphenoxy)pyridine-3-carboxamide] | +++ (“+++” means <3 uM)
CNc1cccc(S(=O)(=O)NC(=O)C2Cc3ccccc3CCN2Cc2c(C)cc(C)cc2C)n1 (centres unmarked) [Compound 747, N-[[6-(methylamino)-2-pyridyl]sulfonyl]-3-[(2,4,6-trimethylphenyl)methyl]-1,2,4,5-tetrahydro-3-benzazepine-4-carboxamide] | +++ (“+++” means <3 uM)
Cc1cc(C)c(Oc2nc(C3CCOCC3)ccc2C(=O)NS(=O)(=O)c2cccc(N)n2)c(C)c1 [Compound 748, N-[(6-amino-2-pyridyl)sulfonyl]-6-tetrahydropyran-4-yl-2-(2,4,6-trimethylphenoxy)pyridine-3-carboxamide] | ++ (“++” means between 3 uM and 10 uM)
COC1CCCN(c2nc(-c3cc(F)cc(OCC(C)C)c3)ccc2C(=O)NS(=O)(=O)c2ccn[nH]2)C1 (centres unmarked) [Compound 749, 6-(3-fluoro-5-isobutoxy-phenyl)-2-(3-methoxy-1-piperidyl)-N-(1H-pyrazol-5-ylsulfonyl)pyridine-3-carboxamide] | +++ (“+++” means <3 uM)
CC1CCN(c2nc3c(cc2C(=O)NS(=O)(=O)c2cccc(N)n2)CCCC3(C)C)CC1 [Compound 750, N-[(6-amino-2-pyridyl)sulfonyl]-8,8-dimethyl-2-(4-methyl-1-piperidyl)-6,7-dihydro-5H-quinoline-3-carboxamide] | +++ (“+++” means <3 uM)
